# Measurements: PubChem BioAssay (NCI)
#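 The compound was tested at five concentrations on cells cultured in 96-well plates, with a 48-hour exposure period. GI50 marks 50% less growth. TGI is the concentration that stops growth completely.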
# How the values were obtained:
# Test in all cases: growth of human tumour cells (NCI), 48 h
# 786-0 renal = test system: 786-0 renal
# A498 renal = test system: A498 renal
# A549 NSCLC = test system: A549 NSCLC
# ACHN renal = test system: ACHN renal
# BT-549 breast = test system: BT-549 breast
# CAKI-1 renal = test system: CAKI-1 renal
# CCRF-CEM leukemia = test system: CCRF-CEM leukemia
# COLO 205 colon = test system: COLO 205 colon
# DU-145 prostate = test system: DU-145 prostate
# EKVX NSCLC = test system: EKVX NSCLC
# HCC-2998 colon = test system: HCC-2998 colon
# HCT-116 colon = test system: HCT-116 colon
# HCT-15 colon = test system: HCT-15 colon
# HL-60(TB) leukemia = test system: HL-60(TB) leukemia
# HOP-62 NSCLC = test system: HOP-62 NSCLC
# HOP-92 NSCLC = test system: HOP-92 NSCLC
# HS 578T breast = test system: HS 578T breast
# HT29 colon = test system: HT29 colon
# IGROV1 ovarian = test system: IGROV1 ovarian
# K-562 leukemia = test system: K-562 leukemia
# KM12 colon = test system: KM12 colon
# LOX IMVI melanoma = test system: LOX IMVI melanoma
# M14 melanoma = test system: M14 melanoma
# MALME-3M melanoma = test system: MALME-3M melanoma
# MCF7 breast = test system: MCF7 breast
# MDA-MB-231 breast = test system: MDA-MB-231 breast
# MDA-MB-435 = test system: MDA-MB-435
# MOLT-4 leukemia = test system: MOLT-4 leukemia
# NCI-H226 lung = test system: NCI-H226 lung
# NCI-H23 lung = test system: NCI-H23 lung
# NCI-H460 lung = test system: NCI-H460 lung
# NCI-H522 lung = test system: NCI-H522 lung
# NCI/ADR-RES ovarian = test system: NCI/ADR-RES ovarian
# OVCAR-3 ovarian = test system: OVCAR-3 ovarian
# OVCAR-4 ovarian = test system: OVCAR-4 ovarian
# OVCAR-5 ovarian = test system: OVCAR-5 ovarian
# OVCAR-8 ovarian = test system: OVCAR-8 ovarian
# PC-3 prostate = test system: PC-3 prostate
# RPMI-8226 leukemia = test system: RPMI-8226 leukemia
# RXF 393 renal = test system: RXF 393 renal
# SF-268 CNS = test system: SF-268 CNS
# SF-295 CNS = test system: SF-295 CNS
# SF-539 CNS = test system: SF-539 CNS
# SK-MEL-2 melanoma = test system: SK-MEL-2 melanoma
# SK-MEL-28 melanoma = test system: SK-MEL-28 melanoma
# SK-MEL-5 melanoma = test system: SK-MEL-5 melanoma
# SK-OV-3 ovarian = test system: SK-OV-3 ovarian
# SN12C renal = test system: SN12C renal
# SNB-19 CNS = test system: SNB-19 CNS
# SNB-75 CNS = test system: SNB-75 CNS
# SR leukemia = test system: SR leukemia
# SW-620 colon = test system: SW-620 colon
# T-47D breast = test system: T-47D breast
# TK-10 renal = test system: TK-10 renal
# U251 CNS = test system: U251 CNS
# UACC-257 melanoma = test system: UACC-257 melanoma
# UACC-62 melanoma = test system: UACC-62 melanoma
# UO-31 renal = test system: UO-31 renal
smiles,measurement,setting,value
COc1ccc(-c2cn[nH]c2-c2cc(OC)c(OC)c(OC)c2)cc1OCc1ccccc1,GI50,786-0 renal,2960 nM
same,TGI,786-0 renal,16.2 µM
same,GI50,A498 renal,2080 nM
same,TGI,A498 renal,5.51 µM
same,GI50,A549 NSCLC,3.56 µM
same,TGI,A549 NSCLC,51.6 µM
same,GI50,ACHN renal,3.53 µM
same,TGI,ACHN renal,35.2 µM
same,GI50,BT-549 breast,5.33 µM
same,TGI,BT-549 breast,25.8 µM
same,GI50,CAKI-1 renal,3.58 µM
same,TGI,CAKI-1 renal,47.1 µM
same,GI50,CCRF-CEM leukemia,3.49 µM
same,TGI,CCRF-CEM leukemia,26.5 µM
same,GI50,COLO 205 colon,4.58 µM
same,TGI,COLO 205 colon,18.1 µM
same,GI50,DU-145 prostate,3.94 µM
same,TGI,DU-145 prostate,21.6 µM
same,GI50,EKVX NSCLC,4.48 µM
same,TGI,EKVX NSCLC,47.2 µM
same,GI50,HCC-2998 colon,3.45 µM
same,TGI,HCC-2998 colon,12.1 µM
same,GI50,HCT-116 colon,3.13 µM
same,TGI,HCT-116 colon,11.2 µM
same,GI50,HCT-15 colon,3.07 µM
same,TGI,HCT-15 colon,13.2 µM
same,GI50,HL-60(TB) leukemia,2360 nM
same,TGI,HL-60(TB) leukemia,5.44 µM
same,GI50,HOP-62 NSCLC,3.13 µM
same,TGI,HOP-62 NSCLC,14.1 µM
same,GI50,HOP-92 NSCLC,2010 nM
same,TGI,HOP-92 NSCLC,15.3 µM
same,GI50,HS 578T breast,2230 nM
same,TGI,HS 578T breast,8.86 µM
same,GI50,HT29 colon,3.61 µM
same,TGI,HT29 colon,15.8 µM
same,GI50,IGROV1 ovarian,3.52 µM
same,TGI,IGROV1 ovarian,18.7 µM
same,GI50,K-562 leukemia,3.18 µM
same,TGI,K-562 leukemia,> 100 µM
same,GI50,KM12 colon,3.3 µM
same,TGI,KM12 colon,12 µM
same,GI50,LOX IMVI melanoma,3.44 µM
same,TGI,LOX IMVI melanoma,13.6 µM
same,GI50,M14 melanoma,2630 nM
same,TGI,M14 melanoma,8.77 µM
same,GI50,MALME-3M melanoma,4.28 µM
same,TGI,MALME-3M melanoma,26.2 µM
same,GI50,MCF7 breast,3.65 µM
same,TGI,MCF7 breast,17.1 µM
same,GI50,MDA-MB-231 breast,3.25 µM
same,TGI,MDA-MB-231 breast,16.5 µM
same,GI50,MDA-MB-435,1950 nM
same,TGI,MDA-MB-435,3.91 µM
same,GI50,MOLT-4 leukemia,3.1 µM
same,TGI,MOLT-4 leukemia,11 µM
same,GI50,NCI-H226 lung,3.57 µM
same,TGI,NCI-H226 lung,20.5 µM
same,GI50,NCI-H23 lung,4.21 µM
same,TGI,NCI-H23 lung,31.7 µM
same,GI50,NCI-H460 lung,3.35 µM
same,TGI,NCI-H460 lung,12.2 µM
same,GI50,NCI-H522 lung,2000 nM
same,TGI,NCI-H522 lung,9.31 µM
same,GI50,NCI/ADR-RES ovarian,2520 nM
same,TGI,NCI/ADR-RES ovarian,7.43 µM
same,GI50,OVCAR-3 ovarian,2470 nM
same,TGI,OVCAR-3 ovarian,5.44 µM
same,GI50,OVCAR-4 ovarian,4.97 µM
same,TGI,OVCAR-4 ovarian,59.1 µM
same,GI50,OVCAR-5 ovarian,3.76 µM
same,TGI,OVCAR-5 ovarian,28 µM
same,GI50,OVCAR-8 ovarian,3.72 µM
same,TGI,OVCAR-8 ovarian,30.3 µM
same,GI50,PC-3 prostate,3.24 µM
same,TGI,PC-3 prostate,19.1 µM
same,GI50,RPMI-8226 leukemia,2220 nM
same,TGI,RPMI-8226 leukemia,9.28 µM
same,GI50,RXF 393 renal,1950 nM
same,TGI,RXF 393 renal,4.85 µM
same,GI50,SF-268 CNS,4.6 µM
same,TGI,SF-268 CNS,27 µM
same,GI50,SF-295 CNS,3.01 µM
same,TGI,SF-295 CNS,9.02 µM
same,GI50,SF-539 CNS,2190 nM
same,TGI,SF-539 CNS,5.23 µM
same,GI50,SK-MEL-2 melanoma,4.27 µM
same,TGI,SK-MEL-2 melanoma,16.7 µM
same,GI50,SK-MEL-28 melanoma,4.86 µM
same,TGI,SK-MEL-28 melanoma,18.3 µM
same,GI50,SK-MEL-5 melanoma,2290 nM
same,TGI,SK-MEL-5 melanoma,5.89 µM
same,GI50,SK-OV-3 ovarian,3.74 µM
same,TGI,SK-OV-3 ovarian,23.8 µM
same,GI50,SN12C renal,4.41 µM
same,TGI,SN12C renal,19.4 µM
same,GI50,SNB-19 CNS,4.23 µM
same,TGI,SNB-19 CNS,24.7 µM
same,GI50,SNB-75 CNS,2910 nM
same,TGI,SNB-75 CNS,9.23 µM
same,GI50,SR leukemia,2850 nM
same,TGI,SR leukemia,9.38 µM
same,GI50,SW-620 colon,4.37 µM
same,TGI,SW-620 colon,30.2 µM
same,GI50,T-47D breast,2830 nM
same,TGI,T-47D breast,19.1 µM
same,GI50,TK-10 renal,4.53 µM
same,TGI,TK-10 renal,49 µM
same,GI50,U251 CNS,3.24 µM
same,TGI,U251 CNS,11.8 µM
same,GI50,UACC-257 melanoma,6.38 µM
same,TGI,UACC-257 melanoma,24.3 µM
same,GI50,UACC-62 melanoma,3.02 µM
same,TGI,UACC-62 melanoma,13.3 µM
same,GI50,UO-31 renal,3.21 µM
same,TGI,UO-31 renal,15.2 µM
